This is an account of results in ChEMBL document CHEMBL1136204, “Thymidine and thymidine-5'-O-monophosphate analogues as inhibitors of Mycobacterium tuberculosis thymidylate kinase” (Bioorg Med Chem Lett, 2003).

One test addresses T1, Thymidylate kinase (Mycobacterium tuberculosis, UniProt P9WKE1).
T1 sequence (P9WKE1 whole entry): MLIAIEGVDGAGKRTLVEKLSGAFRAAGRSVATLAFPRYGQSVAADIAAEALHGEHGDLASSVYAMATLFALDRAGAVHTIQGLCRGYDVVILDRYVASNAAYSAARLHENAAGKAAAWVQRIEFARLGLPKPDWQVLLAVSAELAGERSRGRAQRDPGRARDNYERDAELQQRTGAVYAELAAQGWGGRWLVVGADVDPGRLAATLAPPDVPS
Put plainly: Inhibitory activity against thymidine monophosphate kinase (TMPK) in Mycobacterium tuberculosis.
`Cc1cn([C@H]2C[C@H](O)[C@@H](CN=[N+]=[N-])O2)c(=O)[nH]c1=O` came in with a Ki of 7 µM.
The same measure, in the same setting: as for `C[C@@H]1CC[C@H](n2cc(Br)c(=O)[nH]c2=O)O1`, the figure is 5 µM.
Same read-out and setting: the value for `Cc1cn([C@@H]2O[C@H](CI)[C@@H](N=[N+]=[N-])[C@H]2O)c(=O)[nH]c1=O` was 490 µM.
The same measure, in the same setting: as for `Cc1cn([C@@H]2O[C@H](C)[C@@H](N)[C@H]2O)c(=O)[nH]c1=O`, the figure is 1900 µM; as for `Cc1cn([C@@H]2O[C@H](CO)[C@@H](O)[C@@H]2O)c(=O)[nH]c1=O`, 238 µM; as for `Cc1cn([C@@H]2O[C@H](CO)[C@@H](O)[C@H]2F)c(=O)[nH]c1=O`, 122 µM.
For `Cc1cn([C@@H]2O[C@H](COP(=O)(O)O)[C@@H](O)[C@H]2N)c(=O)[nH]c1=O`, the affinity, expressed as Ki, was 120 µM.
The same measure, in the same setting: as for `Cc1cn([C@@H]2O[C@H](COP(=O)(O)O)[C@@H](N)[C@H]2O)c(=O)[nH]c1=O`, the figure is 45 µM.
On the same count and under the same terms, the value for `O=c1[nH]c(=O)n([C@H]2C[C@H](O)[C@@H](COP(=O)(O)O)O2)cc1-c1cccs1` was 270 µM; that for `O=c1[nH]c(=O)n([C@H]2C[C@H](O)[C@@H](COP(=O)(O)O)O2)cc1Cc1ccccc1` was 28 µM; that for `O=c1[nH]c(=O)n([C@H]2C[C@H](O)[C@@H](COP(=O)(O)O)O2)cc1-c1ccco1` was 140 µM.
`Cc1cn([C@@H]2CO[C@H](COP(=O)(O)O)[C@@H](O)C2)c(=O)[nH]c1=O` registered a Ki of 150 µM.
The same measure, in the same setting: as for `O=c1[nH]c(=O)n([C@H]2C[C@H](O)[C@@H](COP(=O)(O)O)O2)cc1CO`, the figure is 110 µM.
For `Cc1cn([C@H]2C[C@H](O)[C@@H](CN)O2)c(=O)[nH]c1=O`, affinity was put at a Ki of 12 µM.
Still for that read-out and setting: the value for `Cc1cn([C@@H]2O[C@H](CO)[C@@H](N=C(N)N)[C@H]2O)c(=O)[nH]c1=O` was 140 µM.
Turning to `CC(=O)NC[C@H]1O[C@@H](n2cc(C)c(=O)[nH]c2=O)C[C@@H]1O`, the affinity, expressed as Ki, was 90 µM.
Same read-out and setting: the value for `Cc1cn([C@H]2C[C@H](N)[C@@H](CO)O2)c(=O)[nH]c1=O` [3-AMINO- 3-DEOXYTHYMIDINE] was 230 µM.
On the same count and under the same terms, as for `O=c1[nH]c(=O)n([C@@H]2O[C@H](CO)[C@@H](O)[C@H]2O)cc1F` [5-FLUOROURIDINE], the figure is 521 µM; as for `Cc1cn([C@H]2C[C@H](F)[C@@H](CO)O2)c(=O)[nH]c1=O` [ALOVUDINE], 28 µM; as for `C[C@H]1O[C@@H](n2cc(F)c(=O)[nH]c2=O)[C@H](O)[C@@H]1O` [DOXIFLURIDINE], 560 µM.
In turn, `Cc1cn([C@H]2C[C@H](O)[C@@H](CO)O2)c(=O)[nH]c1=O` [DOXRIBTIMINE] showed a Ki of 715 µM.
The same measure, in the same setting: as for `CCc1cn([C@H]2C[C@H](O)[C@@H](CO)O2)c(=O)[nH]c1=O` [EDOXUDINE], the figure is 1140 µM.
Consider `O=c1[nH]c(=O)n([C@H]2C[C@H](O)[C@@H](CO)O2)cc1C(F)(F)F` [TRIFLURIDINE], for which the Ki turned out to be 97 µM.

A further test addresses T1, Thymidylate kinase. The experiment in a line: Inhibitory activity against thymidine monophosphate kinase (TMPKmt) in Mycobacterium tuberculosis using HPLC chromatography test.
`Cc1cn([C@H]2C[C@H](O)[C@@H](COP(=O)(O)OP(=O)(O)OP(=O)(O)OP(=O)(O)OP(=O)(O)OC[C@H]3O[C@@H](n4cnc5c(N)ncnc54)[C@H](O)[C@@H]3O)O2)c(=O)[nH]c1=O` had an inhibitory constant (Ki) of 30 µM.

A word on the Ki: it is the equilibrium dissociation constant of an inhibitor or competing ligand from its target.
